Test results published in patent publication US20120283403A1, “Phenylboronic Acid Monomer and Phenylboronic Acid Polymer” (National Institute for Materials Science, priority 2010, published 2012).

Source text: Subsequently, for the sample 1, the comparative sample 1 and the comparative sample 2, the relationships between glucose concentrations and apparent changes in pKa were derived by acid-base titration under various glucose concentration conditions (0 g/L, 1 g/L, 3 g/L, 5 g/L, and 10 g/L).

For C=CC(=O)NCCNC(=O)c1ccc(B(O)O)cc1F [sample 1, 4-(2-acrylamideethylcarbamoyl)-3-fulorophenylboronic acid], the “apparent pKa” value (all glucose concentrations (0, 1, 3, 5 and 10 g/L), FIG. 2, samples a1 to a5) was under 7.4 and the “degrees of decrease in pKa according to the increase in the concentrations of glucose” value (compared with comparative samples 1 and 2, glucose 0 to 10 g/L) was “excellent”.
